US20170000889A1, “STABLE BROMFENAC OPHTHALMIC SOLUTION” (SENTISS PHARMA PRIVATE LIMITED, priority 2013, published 2017)

Test: Haziness of citrate-buffered bromfenac formulation on addition of BKC, effect of surfactants
Assay type: physicochemical
Settings: for Degradation of the bromfenac solution with the surfactant: compared among different surfactants; for Haziness after addition of BKC to the citrate formulation: surfactant added to citrate-buffered bromfenac solution with benzalkonium chloride
Description: In yet other embodiment of the present invention, citrate buffer is used instead of borate buffer but when benzalkonium chloride (BKC) was added in the citrate formulation it causes haziness of the formulation.
The inventors of the present invention extensively studied how to overcome the haziness occurred during the addition of BKC.

| Substance | Degradation of the bromfenac solution with the surfactant | Haziness after addition of BKC to the citrate formulation |
| --- | --- | --- |
| polyoxyl-15-hydroxystearate | least amount of degradation | remove the haziness |
| polysorbate 80 | least amount of degradation | remove the haziness |
